Measured values as given in the supplement of paper PMC11208160.

assay: recombinant barcode read abundance after kanamycin selection (control-corrected) (log10(CPM+1)); higher = more efficient recombination; sequences stand for … in AGTGCAGAGAAAATCGGCCAGTTTTCTCTGCCTGCAGTCCGCATGCCGT…AGATTTATGCAGCGGACTGCCTTTCTCCCAAAGTGATAAACCGGACAGTATCATGGACCGGTTTTCCCGGTAATCCGTATTTGCAAGGTTGGTTTCACT; site = the 11-nt target
Method in brief: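 In E. coli, a pooled library matched targets to IS621 bridge RNA target-binding loops and was introduced alongside a donor plasmid. Cells went onto chloramphenicol/ampicillin/kanamycin with 0.1 mM IPTG or onto chloramphenicol/ampicillin LB agar as control, in duplicate. Recombination efficiency, from recombinant-junction barcodes as counts per million, is averaged and control-corrected. It is reported as log10(CPM+1).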
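Further: IS621 recombinase and bridge RNA in Escherichia coli cells.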

Sequence | recombinant barcode read abundance (log10)
AGCAACACTTGGGTTCTAACCTGTTGCAG (site AGCAACACTCT) | 0.467
AGCAACACTTGGGTTCTAACCTGTTGCAG (site TCTCGTCCTTA) | 0.0984
AGCAATTCTTGGGTTCTAACCTGTTGCCT (site AGAAATTCTAG) | 0.144
AGCAATTCTTGGGTTCTAACCTGTTGCCT (site AGCAATTCTAG) | 0.165
AGCAATTCTTGGGTTCTAACCTGTTGCCT (site AGGAATTCTAG) | 0.132
AGCAATTCTTGGGTTCTAACCTGTTGCCT (site AGTAATTCTAG) | 0.277
AGCAGCTCTTGGGTTCTAACCTGTTGCCT (site AGCAGCTCTAG) | 1.7
AGCAGCTCTTGGGTTCTAACCTGTTGCCT (site AGGAGCGCTAG) | 0.0136
AGCAGGACTTGGGTTCTAACCTGTTGCCG (site AGCACGACTCA) | 0.0667
AGCAGGACTTGGGTTCTAACCTGTTGCCG (site AGCAGGACTCG) | 1.17
AGCAGGGCTTGGGTTCTAACCTGTTGCAG (site AGCAGGGCTCT) | 2.14
AGCAGGGCTTGGGTTCTAACCTGTTGCAG (site AGTAGGACTCT) | 0.184
AGCAGGTCTTGGGTTCTAACCTGTTGCCT (site AACAGGTCTAG) | 0.109
AGCAGGTCTTGGGTTCTAACCTGTTGCCT (site ACCAGGTCTAG) | 0.234
AGCAGGTCTTGGGTTCTAACCTGTTGCCT (site AGCAGGTCTAG) | 1.09
AGCAGGTCTTGGGTTCTAACCTGTTGCCT (site ATCAGGTCTAG) | 0.0118
AGCAGTCCTTGGGTTCTAACCTGTTGCGT (site AGCAGTCCTAC) | 1.47
AGCAGTCCTTGGGTTCTAACCTGTTGCGT (site AGGAGTCCTAC) | 0.188
AGCAGTCCTTGGGTTCTAACCTGTTGCTG (site AGCAGTCCTCA) | 0.802
AGCAGTCCTTGGGTTCTAACCTGTTGCTG (site TCCAGTCCTCA) | 0.0256
AGCCACACTTGGGTTCTAACCTGTTGCCT (site AGCCACACTAG) | 0.933
AGCCACACTTGGGTTCTAACCTGTTGCCT (site AGCCACCCTAG) | 0
AGCCACACTTGGGTTCTAACCTGTTGCCT (site AGCCACGCTAG) | 0.374
AGCCACACTTGGGTTCTAACCTGTTGCCT (site AGCCACTCTAG) | 0.456
AGCCACACTTGGGTTCTAACCTGTTGCGT (site AGCCACACTAC) | 0.948
AGCCACACTTGGGTTCTAACCTGTTGCGT (site TGCCAGACTAC) | 0.183

Sequence | recombinant barcode read abundance (log10)
AGCCCTCCTTGGGTTCTAACCTGTTGCTT (site AGCCCTCCTAA) | 0.518
AGCCCTCCTTGGGTTCTAACCTGTTGCTT (site AGCCCTCCTCA) | 0.667
AGCCCTCCTTGGGTTCTAACCTGTTGCTT (site AGCCCTCCTGA) | 0.038
AGCCCTCCTTGGGTTCTAACCTGTTGCTT (site AGCCCTCCTTA) | 0.0347
AGCCTCCCTTGGGTTCTAACCTGTTGCCT (site AGACTCCCTAG) | 0.089
AGCCTCCCTTGGGTTCTAACCTGTTGCCT (site AGCCTCCCTAG) | 0.474
AGCCTCCCTTGGGTTCTAACCTGTTGCCT (site AGGCTCCCTAG) | 0.0381
AGCCTCCCTTGGGTTCTAACCTGTTGCCT (site AGTCTCCCTAG) | 0.578
AGCCTGACTTGGGTTCTAACCTGTTGCCT (site AGCCTGACTAG) | 0.741
AGCCTGACTTGGGTTCTAACCTGTTGCCT (site AGCCTGCCTAG) | 0.313
AGCCTGACTTGGGTTCTAACCTGTTGCCT (site AGCCTGGCTAG) | 0.332
AGCCTGACTTGGGTTCTAACCTGTTGCCT (site AGCCTGTCTAG) | 0
AGCCTGGCTTGGGTTCTAACCTGTTGCCT (site AGCCTGACTAG) | 0.302
AGCCTGGCTTGGGTTCTAACCTGTTGCCT (site AGCCTGCCTAG) | 0.235
AGCCTGGCTTGGGTTCTAACCTGTTGCCT (site AGCCTGGCTAG) | 0.594
AGCCTGGCTTGGGTTCTAACCTGTTGCCT (site AGCCTGTCTAG) | 0.0926
AGCGCTTCTTGGGTTCTAACCTGTTGCCT (site AACGCTTCTAG) | 0.241
AGCGCTTCTTGGGTTCTAACCTGTTGCCT (site ACCGCTTCTAG) | 0.423
AGCGCTTCTTGGGTTCTAACCTGTTGCCT (site AGCGCTTCTAG) | 0.454
AGCGCTTCTTGGGTTCTAACCTGTTGCCT (site ATCGCTTCTAG) | 0.0212
AGCGGACCTTGGGTTCTAACCTGTTGCCT (site AGCGGACCTAG) | 1.45
AGCGGACCTTGGGTTCTAACCTGTTGCCT (site AGCGGCCCTAG) | 0.133
AGCGGACCTTGGGTTCTAACCTGTTGCCT (site AGCGGGCCTAG) | 0.188
AGCGGACCTTGGGTTCTAACCTGTTGCCT (site AGCGGTCCTAG) | 0.0865
AGCTCACCTTGGGTTCTAACCTGTTGCCT (site AGCTCACCTAG) | 0.216
AGCTCACCTTGGGTTCTAACCTGTTGCCT (site AGCTCATCTAG) | 0.147

Sequence | recombinant barcode read abundance (log10)
AGCTTACCTTGGGTTCTAACCTGTTGCCT (site AGCTTACCTAG) | 0.204
AGCTTACCTTGGGTTCTAACCTGTTGCCT (site CGCTTACCTAG) | 0.212
AGCTTACCTTGGGTTCTAACCTGTTGCCT (site GGCTTACCTAG) | 0.105
AGCTTACCTTGGGTTCTAACCTGTTGCCT (site TGCTTACCTAG) | 0.0503
AGCTTAGCTTGGGTTCTAACCTGTTGCCC (site AGCTTAGCTAG) | 0.306
AGCTTAGCTTGGGTTCTAACCTGTTGCCC (site AGCTTAGCTCG) | 0.0502
AGCTTAGCTTGGGTTCTAACCTGTTGCCC (site AGCTTAGCTGG) | 0.395
AGCTTAGCTTGGGTTCTAACCTGTTGCCC (site AGCTTAGCTTG) | 0.0493
AGCTTGCCTTGGGTTCTAACCTGTTGCAG (site AGCTTGCCTCT) | 0.717
AGCTTGCCTTGGGTTCTAACCTGTTGCAG (site CATAGCGCTAG) | 0.277
AGCTTTGCTTGGGTTCTAACCTGTTGCCT (site AGCATTGCTAG) | 0.015
AGCTTTGCTTGGGTTCTAACCTGTTGCCT (site AGCCTTGCTAG) | 0.171
AGCTTTGCTTGGGTTCTAACCTGTTGCCT (site AGCGTTGCTAG) | 0.669
AGCTTTGCTTGGGTTCTAACCTGTTGCCT (site AGCTTTGCTAG) | 0.0693
AGGAACCCTTGGGTTCTAACCTGTTGCTG (site AGGAACCCTAA) | 0.712
AGGAACCCTTGGGTTCTAACCTGTTGCTG (site AGGAACCCTCA) | 1.78
AGGAACCCTTGGGTTCTAACCTGTTGCTG (site AGGAACCCTGA) | 0.106
AGGAACCCTTGGGTTCTAACCTGTTGCTG (site AGGAACCCTTA) | 0.08
AGGACGACTTGGGTTCTAACCTGTTGCCT (site AGCGCGACTAG) | 0.0505
AGGACGACTTGGGTTCTAACCTGTTGCCT (site AGGACGACTAG) | 0.376
AGGAGAACTTGGGTTCTAACCTGTTGCCT (site AGCATAACTAG) | 0.447
AGGAGAACTTGGGTTCTAACCTGTTGCCT (site AGGAGAACTAG) | 1.35
AGGAGCCCTTGGGTTCTAACCTGTTGCTC (site AGGAGCCCTAA) | 0.124
AGGAGCCCTTGGGTTCTAACCTGTTGCTC (site AGGAGCCCTCA) | 0.152
AGGAGCCCTTGGGTTCTAACCTGTTGCTC (site AGGAGCCCTGA) | 0.377
